How the values were obtained:
[1] = test system: interleukin 5 (IL-5) production; assay: Cytokine production inhibitory effect: IL-5 production by murine spleen cells treated with anti-mouse CD3 antibody and IL-2 (ELISA); assay type: cell-based, Balb/c mice; settings: anti-CD3 antibody + IL-2, 40 to 48 hours, read-out: IL-5 production inhibitory ratio (%); for inhibition at 100 ppm: test compound 100 ppm
Method: (§1) Murine spleen cells were treated with anti-mouse CD3 antibody and IL-2 to induce cytokine production. The test compounds were added to the cytokine production system to evaluate their inhibitory effect. Namely, anti-mouse CD3 antibody adjusted to from 10 to 20 μg/ml with borate buffered physiological saline (pH 8.5) was pipetted into a 96-well cell culture plate in an amount of 50 μl/well and left to stand at 4° C. for 18 hours. The unreacted solution was removed, washing with Hank's buffer solution was carried out once, and IL-2 adjusted to 10 ng/ml with a RPMI liquid containing 10% fetal bovine serum (FCS) was pipetted in an amount of 50 μl/well. For the negative control group, a solution alone without anti-CD3 antibody nor IL-2 was applied. Then, the diluted solution of each of the test compounds (concentration: 100 ppm unless otherwise specified) was pipetted in an amount of 50 μl/well, and a cell suspension of 1×10^7 cells/ml, prepared from spleen of Balb/c mice (female, 7 to 10 week old) was pipetted thereinto in an amount of 100 μl/well. After cultivation in an incubator (37° C., 5% carbon dioxide gas) for from 40 to 48 hours, the culture supernatant was recovered to measure the cytokine production amount by ELISA method.
(§2) With respect to interleukin 5 (IL-5) as a typical Th2 type cytokine and interferon γ (IFN-γ) as a typical Th1 type cytokine, measurements were carried out by the following methods, respectively. Namely, quantitative determination of IL-5 was carried out by the following ELISA method. First, rat anti-mouse IL-5 antibody (Endogen Code No. MM-550C) as a primary antibody was diluted with carbonate buffer solution (pH 9.5) to 1 μg/ml, and spread in a 96 well plate (IWAKI, Code No. 3860-096) in an amount of 50 μl/well for coating at 4° C. overnight (16 to 24 hours). Then, the plate was subjected to blocking at 37° C. for 2 hours by phosphate buffered physiological saline containing 10% FCS (pH 7.2) (blocking buffer solution) (250 μl/well). The plate was washed with PBS (washing buffer) containing 0.05% Tween 20 (Nacalai Tesque, Code No. 281-51) four times, and a diluted liquid of the culture supernatant was spread in an amount of 50 μl/well, followed by incubation at room temperature for 1 hour. For preparation of a standard line, recombinant mouse IL-5 (R&D systems, Code No. 405-ML) was employed. The plate was washed with a washing buffer four times, and biotin-labeled rat anti-mouse IL-5 antibody (Pharmingen, Code No. 18062D) as a secondary antibody diluted to 0.5 μg/ml with a blocking buffer containing 0.05% Tween 20 was added thereto (50 μl/well), followed by incubation at room temperature for 1 hour. The plate was washed with a washing buffer four times, strept avidin-labeled peroxidase (ProZyme, Code No. CJ30H001) diluted 800 times with a blocking buffer containing 0.05% Tween 20 was added thereto (50 μl/well), followed by reaction at room temperature for 15 minutes. The plate was washed with a washing buffer four times, and a […] substrate solution (SIGMA, Code No. T-8665) was added thereto in an amount of 100 μl/well for color developing for from 10 to 20 minutes. A 1M sulfuric acid solution was added thereto in an amount of 100 μl/well to terminate the reaction, and absorption (wavelength 450 nm) was measured by means of micro plate reader (SPECTRA max, Wako Pure Chemicals Industries, Ltd.). Quantitative determination of IFN-γ was carried out in the same manner as the measurement of IL-5, employing rat anti-mouse IFN-γ antibody (Pharmingen, Code No. 18181D) and biotin labeled rat anti-mouse IFN-γ antibody (Pharmingen, Code NO. 18112D), as a primary antibody and a secondary antibody, respectively. For preparation of a standard line, recombinant mouse IFN-γ (GENZYME, Code No. 3485) was employed. The experiment was carried out in duplicate, and the average of the cytokine production amount was obtained. […]

[2] = test system: interferon γ (IFN-γ) production; assay: Cytokine production inhibitory effect: IFN-γ production by murine spleen cells treated with anti-mouse CD3 antibody and IL-2 (ELISA); assay type: cell-based, Balb/c mice; settings: anti-CD3 antibody + IL-2, 40 to 48 hours, read-out: IFN-γ production inhibitory ratio (%); for inhibition at 100 ppm: test compound 100 ppm
Method: as §1, §2

Row | melting point | Compound | inhibition at 100 ppm [1] | inhibition at 100 ppm [2] | inhibition at 10 ppm ([1]; test compound 10 ppm) | inhibition at 10 ppm ([2]; test compound 10 ppm)
1 | 160 to 161 °C | O=C(Nc1ccc(Oc2ccc(C(F)(F)F)cn2)c(Cl)c1)c1cccc(Cl)c1 [compound 6] | 100% | 100% |  | 
2 | 127 to 129 °C | O=C(Nc1ccc(Oc2ccc(C(F)(F)F)cn2)c(Cl)c1)c1cccc(C(F)(F)F)c1 [compound 7] | 100% | 100% |  | 
3 | 154 to 155 °C | O=C(Nc1ccc(Oc2ccc(C(F)(F)F)cn2)c(Cl)c1)c1ccc(C(F)(F)F)cc1 [compound 8] |  |  | 58% | 67%
4 | 152 to 154 °C | COc1ccc(C(=O)Nc2ccc(Oc3ccc(C(F)(F)F)cn3)c(Cl)c2)cc1OC [compound 9] | 96% | 100% |  | 
5 | 165 to 167 °C | O=C(Nc1ccc(Oc2ccc(C(F)(F)F)cn2)c(Cl)c1)c1ccccc1O [compound 15] | 99% | 100% |  | 
6 | 159 to 161 °C | O=CNc1cccc(C(=O)Nc2ccc(Oc3ccc(C(F)(F)F)cn3)c(Cl)c2)c1O [compound 17] | 100% | 100% |  | 
7 | 211.5 to 214.4 °C | O=C(Nc1ccc(Cc2ccccc2)cc1)c1cc([N+](=O)[O-])ccc1O [compound 18] | 100% | 100% |  | 
8 | 262 °C | O=C(Nc1ccc(C23CC4CC(CC(C4)C2)C3)cc1)c1cc([N+](=O)[O-])ccc1Cl [compound 21] | 96% | 89% |  | 
9 | 154 °C | Cc1cc(C23CC4CC(CC(C4)C2)C3)ccc1NC(=O)c1ccccc1Cl [compound 22] | 100% | 100% |  | 
10 | 177 °C | Cc1cc(C23CC4CC(CC(C4)C2)C3)ccc1NC(=O)c1cccc([N+](=O)[O-])c1 [compound 23] | 100% | 100% |  | 
11 | 200 °C | Cc1cc(C23CC4CC(CC(C4)C2)C3)ccc1NS(=O)(=O)c1ccccc1Cl [compound 25] | 89% | 93% |  | 
12 | 206 °C | Cc1ccc(NC(=O)c2cc([N+](=O)[O-])ccc2Cl)c(C)c1 [compound 26] | 82% | 30% |  | 
13 | 154 °C | COc1ccc(NC(=O)c2cc([N+](=O)[O-])ccc2Cl)cc1 [compound 28] | 100% | 100% |  | 
14 | 162 °C | CSc1ccc(NC(=O)c2cc([N+](=O)[O-])ccc2Cl)cc1 [compound 29] | 98% | 100% |  | 
15 | 176 °C | O=C(Nc1ccc(C(F)(F)F)cc1)c1cc([N+](=O)[O-])ccc1Cl [compound 30] | 100% | 100% |  | 
16 | 196 °C | Cc1cc(Oc2ccc(C(F)(F)F)cc2)ccc1NC(=O)c1cc([N+](=O)[O-])ccc1Cl [compound 31] | 62% | 63% |  | 
17 | 189 °C | O=C(Nc1ccc(Sc2ccc(C(F)(F)F)cn2)cc1)c1cc([N+](=O)[O-])ccc1Cl [compound 32] | 99% | 98% |  | 
18 | 168 °C | O=C(Nc1cccc(C(F)(F)F)c1)c1cc([N+](=O)[O-])ccc1Cl [compound 33] | 100% | 100% |  | 

Row | melting point | Compound | inhibition at 100 ppm [1] | inhibition at 100 ppm [2] | inhibition at 10 ppm ([1]; test compound 10 ppm) | inhibition at 10 ppm ([2]; test compound 10 ppm)
19 | 184 °C | COC(=O)c1cccc(C(=O)Nc2ccc(C34CC5CC(CC(C5)C3)C4)cc2C)c1 [compound 34] | 88% | 97% |  | 
20 | 232 °C | Cc1cc(C23CC4CC(CC(C4)C2)C3)ccc1NC(=O)c1cccc(C(=O)O)c1 [compound 35] | 100% | 100% |  | 
21 | 198 °C | Cc1cc(C23CC4CC(CC(C4)C2)C3)ccc1NC(=O)c1cc([N+](=O)[O-])ccc1C [compound 36] | 81% | 85% |  | 
22 | 110 °C | O=C(Nc1ccccc1Oc1ccccc1)c1cc([N+](=O)[O-])ccc1Cl [compound 37] | 97% | 100% |  | 
23 | 154 °C | O=C(Nc1ccccc1-c1ccccc1)c1cc([N+](=O)[O-])ccc1Cl [compound 38] | 86% | 93% |  | 
24 | 103 °C | O=C(Nc1cccc(Oc2ccccc2)c1)c1cc([N+](=O)[O-])ccc1Cl [compound 40] | 100% | 100% |  | 
25 | 241 °C | Cc1cc(C23CC4CC(CC(C4)C2)C3)ccc1NS(=O)(=O)c1cc([N+](=O)[O-])ccc1C [compound 44] | 93% | 100% |  | 
26 | 198 °C | Cc1cc(C23CC4CC(CC(C4)C2)C3)ccc1NC(=O)c1cc([N+](=O)[O-])ccc1F [compound 45] | 99% | 99% |  | 
27 | 178 °C | COC(=O)c1cc(C(=O)Nc2ccc(C34CC5CC(CC(C5)C3)C4)cc2C)cc([N+](=O)[O-])c1 [compound 47] | 89% | 95% |  | 
28 | 148 °C | O=[N+]([O-])c1ccc(Cl)c(S(=O)(=O)Nc2ccc(Oc3ccccc3)cc2)c1 [compound 49] | 100% | 100% |  | 
29 | 83 °C | Cc1cc(C23CC4CC(CC(C4)C2)C3)ccc1NC(=O)c1cccc(C#N)c1 [compound 50] | 95% | 98% |  | 
30 | 226 °C | O=C(c1ccccc1)c1ccc(NC(=O)c2cc([N+](=O)[O-])ccc2Cl)cc1 [compound 51] | 99% | 100% |  | 
31 | 115 °C | COc1ccc([N+](=O)[O-])c(OC)c1C(=O)Nc1ccc(C23CC4CC(CC(C4)C2)C3)cc1C [compound 52] | 75% | 96% |  | 
32 | 224 °C | Cc1cc(C23CC4CC(CC(C4)C2)C3)ccc1NC(=O)c1c(Cl)ccc([N+](=O)[O-])c1Cl [compound 53] | 94% | 93% |  | 
33 | 200 °C | Cc1cc(C23CC4CC(CC(C4)C2)C3)ccc1NC(=O)c1ccc([N+](=O)[O-])cc1Cl [compound 55] | 96% | 100% |  | 
34 | 131 °C | Cc1cc(C23CC4CC(CC(C4)C2)C3)ccc1NC(=O)c1cc([N+](=O)[O-])ccc1O [compound 56] | 100% | 100% |  | 
35 | 233 °C | Cc1cc(C23CC4CC(CC(C4)C2)C3)ccc1NC(=O)c1cc(Cl)ccc1[N+](=O)[O-] [compound 57] | 90% | 98% |  | 

From patent US7132546B2, “Aniline derivatives or salts thereof and cytokine production inhibitors containing the same” (Ishihara Sangyo Kaisha, Ltd., priority 2000, dated 2006)
